The record followed here is ChEMBL document CHEMBL1151392, “Structure-activity relations of polyfunctional diterpenes of the daphnane type. I. Revised structure for resiniferatoxin and structure-activity relations of resiniferonol and some of its esters” (J Nat Prod, 1982).

For data set [1], the species on record is Mus musculus. Put plainly: Toxicity in NMRI mouse assessed as irritant dose 50 causing ear redness after 5 hours assessed per ear. It counts as organism-based. The following applies: in vivo, topical_or_ocular.
For data set [2], the species on record is Mus musculus. Put plainly: Toxicity in NMRI mouse assessed as irritant dose 50 causing ear redness after 24 hours assessed per ear. It counts as organism-based. The settings on record: in vivo.

Bounds are passed on as bounds.

As for `COC(=O)Cc1ccc(O)c(OC)c1`, the Activity in the data set filed under Mus musculus [1] is 25 nmol; in the data set filed under Mus musculus [2], more than 100 nmol.
For `C=C(C)[C@]1(O)C[C@@H](C)[C@@]2(O)[C@@H](C=C(COC(=O)Cc3ccccc3)C[C@]3(O)C(=O)C(C)=C[C@@H]23)[C@H]1O`, the Activity in the data set filed under Mus musculus [1] and in the data set filed under Mus musculus [2] was more than 100 nmol throughout.
In the case of `C=C(C)[C@]12C[C@@H](C)[C@@]34O[C@](Cc5ccccc5)(O[C@@H]1[C@@H]3C=C(COC(=O)Cc1ccccc1)C[C@]1(O)C(=O)C(C)=C[C@@H]41)O2`, the Activity in the data set listed under Mus musculus [1] is 1.7 ×10⁻³ nmol; in the data set filed under Mus musculus [2], more than 10 nmol.
Consider `C=C(C)[C@]12C[C@@H](C)[C@@]34O[C@](CCCCCCCCCCCCC)(O[C@@H]1[C@@H]3C=C(COC(=O)CCCCCCCCCCCCC)C[C@]1(O)C(=O)C(C)=C[C@@H]41)O2`, for which the Activity in the data set filed under Mus musculus [1] and in the data set filed under Mus musculus [2] was more than 60 nmol each time.
As for `C=C(C)[C@]12C[C@@H](C)[C@@]34O[C@](C)(O[C@@H]1[C@@H]3C=C(CO)C[C@]1(O)C(=O)C(C)=C[C@@H]41)O2`, the Activity in the data set listed under Mus musculus [1] was more than 100 nmol; in the data set listed under Mus musculus [2] it was 12.9 nmol.
Regarding `C=C(C)[C@]12C[C@@H](C)[C@@]34O[C@](CCCCCCCCCCCCC)(O[C@@H]1[C@@H]3C=C(COC(=O)Cc1cc(OC)cc(OC)c1)C[C@]1(O)C(=O)C(C)=C[C@@H]41)O2`, the Activity in the data set listed under Mus musculus [1] and in the data set listed under Mus musculus [2] was more than 5 nmol in each case.
Turning to `C=C(C)[C@]12C[C@@H](C)[C@@]34O[C@](Cc5ccccc5)(O[C@@H]1[C@@H]3C=C(COC(C)=O)C[C@]1(O)C(=O)C(C)=C[C@@H]41)O2`, the Activity in the data set filed under Mus musculus [1] and in the data set listed under Mus musculus [2] was more than 10 nmol each time.
As for `C=C(C)[C@]12C[C@@H](C)[C@@]34O[C@](Cc5ccccc5)(O[C@@H]1[C@@H]3C=C(COC(=O)Cc1ccc(O)c(OC)c1)C[C@]1(O)C(=O)C(C)=C[C@@H]41)O2` [RESINIFERATOXIN], the Activity in the data set filed under Mus musculus [1] is 1.6 ×10⁻⁵ nmol; in the data set listed under Mus musculus [2], more than 20 nmol.
On the same counts, the results for `C=C(C)[C@]12C[C@@H](C)[C@@]34O[C@](Cc5ccccc5)(O[C@@H]1[C@@H]3C=C(COC(=O)Cc1ccc(OC)c(OC)c1)C[C@]1(O)C(=O)C(C)=C[C@@H]41)O2` [RESINIFERATOXIN METHYL ETHER] are 4.7 ×10⁻⁴ nmol and more than 20 nmol.
Regarding `C=C(C)[C@]12C[C@@H](C)[C@@]34O[C@](C)(O[C@@H]1[C@@H]3C=C(COC(=O)Cc1cc(OC)cc(OC)c1)C[C@]1(O)C(=O)C(C)=C[C@@H]41)O2`, the Activity in the data set filed under Mus musculus [1] was 2.6 ×10⁻² nmol; in the data set listed under Mus musculus [2], more than 5 nmol.
As to `C=C(C)[C@]12C[C@@H](C)[C@@]34O[C@](Cc5ccccc5)(O[C@@H]1[C@@H]3C=C(COC(=O)c1ccccc1)C[C@]1(O)C(=O)C(C)=C[C@@H]41)O2`, the Activity in the data set filed under Mus musculus [1] is listed as 1.2 ×10⁻² nmol; in the data set listed under Mus musculus [2] it was more than 10 nmol.
On to `C=C(C)[C@]12C[C@@H](C)[C@@]34O[C@](Cc5ccccc5)(O[C@@H]1[C@@H]3C=C(CO)C[C@]1(O)C(=O)C(C)=C[C@@H]41)O2`, for which the values for the Activity in the data set listed under Mus musculus [1] and in the data set filed under Mus musculus [2] were 1 nmol and more than 20 nmol, respectively.
On to `C=C(C)[C@]12C[C@@H](C)[C@@]34O[C@](Cc5ccccc5)(O[C@@H]1[C@@H]3C=C(COC(=O)CCCCC)C[C@]1(O)C(=O)C(C)=C[C@@H]41)O2`, for which the Activity is reported as 8.9 ×10⁻² nmol in the data set filed under Mus musculus [1] and more than 10 nmol in the data set listed under Mus musculus [2].
The like results for `C=C(C)[C@]12C[C@@H](C)[C@@]34O[C@](CCCCCCCCCCCCC)(O[C@@H]1[C@@H]3C=C(CO)C[C@]1(O)C(=O)C(C)=C[C@@H]41)O2` were, in that order, more than 30 nmol and 0.8 nmol.
As for `C=C(C)[C@]1(O)C[C@@H](C)[C@@]2(O)[C@@H](C=C(CO)C[C@]3(O)C(=O)C(C)=C[C@@H]23)[C@H]1O` [RESINIFERONOL], the Activity in the data set filed under Mus musculus [1] and in the data set listed under Mus musculus [2] was more than 100 nmol throughout.
Consider `C=C(C)[C@]12C[C@@H](C)[C@@]34O[C@](Cc5ccccc5)(O[C@@H]1[C@@H]3C=C(COC(=O)Cc1cc(OC)cc(OC)c1)C[C@]1(O)C(=O)C(C)=C[C@@H]41)O2`, for which the Activity in the data set listed under Mus musculus [1] is on record as 6.2 ×10⁻⁴ nmol; in the data set filed under Mus musculus [2] it was more than 20 nmol.
